Data on four compounds can be found in patent US7838543B2, “MCH receptor antagonists” (Eli Lilly and Company, priority 2005, dated 2010).

For test [1], the target named is T1, human MCHR1 (Homo sapiens, UniProt Q99705).
T1 construct: The full-length cDNA for human MCHR1 was cloned from a human adult brain cDNA library; expressed in transfected cells; host or cells: AV12 cells previously transfected with Galpha15
As to the kind of experiment: 125I-MCH competitive binding assay with clone 43 membranes. Particulars: Ki from IC50 by Cheng-Prusoff. As to the method: The full-length cDNA for human MCHR1 was cloned from a human adult brain cDNA library (Edge Biosystems, Cat. 38356) by standard polymerase chain reaction (PCR) methodology employing the following primers: sense, 5′-GCCACCATGGACCT GGAAGCCTCGCTGC-3′; anti-sense, 5′-[…]-3′. The PCR reaction was performed in a final volume of 50 μl containing 5 μl of a 10× stock solution of PCR buffer, 1 μl of 10 mM dNTP mixture (200 μM final), 2 μl of 50 mM Mg(SO4) (2 mM final), 0.5 μl of 20 μM solutions of each primer (0.2 μM final), 5 μl of template cDNA containing 0.5 ng DNA, 0.5 μl of Platinum Taq High Fidelity DNA polymerase (Gibco Life Technologies) and […] of H2O. PCR amplification was performed on a Perkin Elmer 9600 thermocycler. After denaturation for 90 sec at 94° C., the amplification sequence consisting of 94° C. for 25 sec, 55° C. for 25 sec and 72° C. for 2 min was repeated 30 times, followed by a final elongation step at 72° C. for 10 min. The desired PCR product (1.1 Kb) was confirmed by agarose gel electrophoresis and the band was extracted from the gel by Geneclean (Bio101) following the manufacturer's instructions. Following extraction, the cDNA fragment was cloned into pCR2.1-TOPO plasmid (Invitrogen Corp) to confirm the identity and sequence.
In order to generate cell lines stably expressing MCHR1, the insert was then subcloned into the Xba I and Not I sites of pcDNA(+)-3.1-neomycin (Invitrogen). After purification by Qiagen Maxi-prep kit (QIAGEN, Inc.), the plasmid was transfected by Fugene 6 (Roche Applied Science) into AV12 cells that had been previously transfected with the promiscuous G protein Gα15. The transfected cells were selected by G418 (800 μg/ml) for 10-14 days and single colonies were isolated from culture plates. The G418-resistant colonies were further selected for MCHR1 expression by measuring MCH-stimulated Ca^2+ transients with a fluorometric imaging plate reader (FLIPR, Molecular Devices).
Both the ^125I-MCH binding and functional GTPγ^35S binding assays employed membranes isolated from a clone designated as clone 43. Typically, cells from 20 confluent T225 flasks were processed by washing the monolayers in cold phosphate-buffered saline (PBS), scraping the cells into same and re-suspending the cell pellet in 35 ml of 250 mM Sucrose, 50 mM HEPES, pH 7.5, 1 mM MgCl2, 24 μg/ml DNase I, and protease inhibitors (1 Complete® tablet, per 50 ml of buffer prepared, Roche Diagnostics). […]
Binding of compounds to MCHR1 was assessed in a competitive binding assay employing ^125I-MCH, compound and clone 43 membranes. […] Non-specific binding is assessed in the presence of 0.1 μM unlabeled MCH. Bound ^125I-MCH is determined by placing sealed plates in a Microbeta Trilux (Perkin Elmer Life and Analytical Sciences Inc) and counting after a 12 hr delay. […]

The test system of test [2] is diet-induced obese male Long-Evans rats. Nature of the test: 3 day body weight change in diet-induced obese rats after oral dosing. The class given is in vivo, rat. The note with it: 10 mg/kg oral once a day for 3 days, 3 day cumulative, relative to vehicle control. As to the method:
Vehicle consisted of 1% CMC and 0.25% PS-80 in water.
Animals were individually housed in a temperature regulated room (24° C.) with a reverse 12 hour light/dark cycle (dark 10:00/22:00). Water and food (Teklad 95217, Harlan, Wis.) were available ad libitum. Compounds were dosed orally once a day before onset of dark for 3 days. Daily food intake and body weight change were measured for the 3 day period.

Where two headings read alike, the source gives them in different places.

T1 sequence (Q99705 whole entry): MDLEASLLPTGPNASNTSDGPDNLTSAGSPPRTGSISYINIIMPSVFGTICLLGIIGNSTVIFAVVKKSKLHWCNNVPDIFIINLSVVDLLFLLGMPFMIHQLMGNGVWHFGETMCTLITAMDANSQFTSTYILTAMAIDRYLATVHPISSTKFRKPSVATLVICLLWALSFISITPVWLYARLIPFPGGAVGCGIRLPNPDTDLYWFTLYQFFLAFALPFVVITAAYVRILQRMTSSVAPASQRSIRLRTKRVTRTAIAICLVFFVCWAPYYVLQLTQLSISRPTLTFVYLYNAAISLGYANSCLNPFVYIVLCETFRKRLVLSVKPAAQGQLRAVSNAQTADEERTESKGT

Consider `CN1CCC(CN(C)c2nc3cc(NC(=O)c4ccc(-c5ccc(F)cc5)cc4)ccc3o2)C1` (single isomer, unassigned) [Example 34, 4′-Fluoro-biphenyl-4-carboxylic acid {2-[methyl-(1-methyl-pyrrolidin-3-ylmethyl)-amino]-benzooxazol-5-yl}-amide], for which, in test [1] (read-out: Average MCHR1 Ki), the Ki was 8.79 nM. The “Body weight reduction @ 10 mg/Kg versus vehicle control. Data expressed in grams.” value in test [2] turned out to be 5.8 grams.
As for `CN1CCC(N(C)c2nc3ccc(NC(=O)c4ccc(-c5ccc(F)cc5)cc4)cc3s2)C1` (single isomer, unassigned) [Example 106, 4′-Fluoro-biphenyl-4-carboxylic Acid {2-[methyl-(1-methyl-pyrrolidin-3-yl)-amino]-benzothiazol-6-yl}-amide], in test [1] (read-out: Average MCHR1 Ki), the Ki came to 16.7 nM. In addition, the “Body weight reduction @ 10 mg/Kg versus vehicle control. Data expressed in grams.” value in test [2] worked out at 8.4 grams.
Consider `CN1CCC(N(C)c2nc3ccc(NC(=O)c4ccc(-c5ccc(F)cc5)cc4)cc3s2)C1` (single isomer, unassigned) [Example 107, 4′-Fluoro-biphenyl-4-carboxylic Acid {2-[methyl-(1-methyl-pyrrolidin-3-yl)-amino]-benzothiazol-6-yl}-amide], for which the Ki in test [1] (read-out: Average MCHR1 Ki) came to 15.3 nM. Moreover, the “Body weight reduction @ 10 mg/Kg versus vehicle control. Data expressed in grams.” value in test [2] stood at 7.1 grams.
In turn, `CN1CCC(N(C)c2nc3cc(NC(=O)c4ccc(-c5ccc(F)cc5Cl)cc4)ccc3o2)CC1.Cl` [Example 157, 2′-Chloro-4′-fluoro-biphenyl-4-carboxylic acid {2-[methyl-(1-methyl-piperidinyl)-amino]-benzooxazol-5-yl}-amide Hydrochloride] came in with a Ki in test [1] (Average MCHR1 Ki (nM)) of 7.5 nM. Further, the “Body weight reduction @ 10 mg/Kg versus vehicle control. Data expressed in grams.” value in test [2] is 18 grams.
